# Test results from PubChem BioAssay AID588673 (Johns Hopkins Ion Channel Center, 2011).
# Active and inactive are the calls of the source.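 How the source made its calls: active means raises KCNQ1 potassium channel current at one or more doses and a concentration response curve can be fitted; inactive means no activation at any dose, or no fittable curve.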
# Target: Potassium voltage-gated channel subfamily KQT member 1 (Homo sapiens) (UniProt P51787)
# Assay: human KCNQ1 channel activators, SAR follow-up, automated patch clamp, CHO cells (AID 588673)
# Sequence of Potassium voltage-gated channel subfamily KQT member 1 (Homo sapiens) (P51787 whole entry, looked up): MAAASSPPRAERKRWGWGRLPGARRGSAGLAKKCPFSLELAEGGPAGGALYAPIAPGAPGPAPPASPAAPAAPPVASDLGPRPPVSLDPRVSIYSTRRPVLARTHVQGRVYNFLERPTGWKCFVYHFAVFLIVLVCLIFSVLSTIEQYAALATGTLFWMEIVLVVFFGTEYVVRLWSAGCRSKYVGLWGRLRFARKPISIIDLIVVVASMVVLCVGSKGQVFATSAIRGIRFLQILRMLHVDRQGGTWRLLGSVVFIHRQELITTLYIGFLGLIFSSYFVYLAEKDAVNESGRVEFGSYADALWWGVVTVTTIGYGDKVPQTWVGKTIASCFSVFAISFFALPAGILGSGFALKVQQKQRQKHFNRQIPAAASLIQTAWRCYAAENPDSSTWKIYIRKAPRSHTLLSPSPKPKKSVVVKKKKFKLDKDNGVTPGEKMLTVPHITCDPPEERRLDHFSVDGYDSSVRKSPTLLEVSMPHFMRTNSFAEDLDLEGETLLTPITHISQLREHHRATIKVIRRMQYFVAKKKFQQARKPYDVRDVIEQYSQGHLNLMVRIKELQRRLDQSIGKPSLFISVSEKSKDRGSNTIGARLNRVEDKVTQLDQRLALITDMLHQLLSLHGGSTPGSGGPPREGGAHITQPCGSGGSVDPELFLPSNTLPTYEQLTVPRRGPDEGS
"IC50, inhibition of current","current activation, percent increase (at 30 µM (top of the series))",Compound
1660 nM,–,COc1ccc(-c2csc(NC(=O)C3CCCCN3S(=O)(=O)c3ccccc3)n2)cc1 (stereo not drawn)
–,inactive,COc1ccc(-c2csc(NC(=O)[C@@H]3CCCCN3S(=O)(=O)c3ccccc3)n2)cc1
1390 nM,–,COc1ccc(-c2csc(NC(=O)[C@H]3CCCCN3S(=O)(=O)c3ccccc3)n2)cc1
